Data reported in US20250000971A1, “TLR4 AGONIST FOR MODULATING IMMUNE RESPONSE” (The Children's Medical Center Corporation, priority 2021, published 2025).
Entries after “also recorded” stand apart in the source; their conditions may differ.

Assays:
[1] = test system: wild type murine bone marrow derived dendritic cells (BMDCs); test: TNF and IL-6 production by wild type murine bone marrow derived dendritic cells; format: cell-based; conditions: N=4
[2] = test system: NF-KB; test: THP-1 reporter cells and THP-1 cells with MyD88, TBK1 or IRF3 knockout; format: cell-based; conditions: THP-1 reporter cells versus knockout strains
Experimental: (§1) FIGS. 3A-3B. PVP-180 is a novel small molecule TLR4 agonist. FIG. 3A: PVP-180 was screened at 33 μM using pattern recognition receptor (PRR)-transfected HEK reporter cell lines. Cell line responses are also indicated to PRR-specific positive controls as well as a negative control. […] Further assays confirm that PVP-180 chemical stock is free of detectable endotoxin. FIG. 3B: PVP-180 was tested with THP-1 reporter cells as well as THP-1 cells with MyD88, TBK1, or IRF3 knockout. […] Results are reported as a percentage of TNF activity.

[3] = test system: human adult and elderly PBMCs; test: TNF production in human adult and elderly PBMCs, 96-well format, 24 h stimulation; format: cell-based
[4] = target: T1, human TLR4 (Homo sapiens, UniProt O00206+Q9Y6Y9); test: PRR-transfected HEK reporter cell lines, TLR4; format: cell-based; conditions: HEK reporter cell line, screened at 33 μM
T1 construct: expressed in transfected cells; host or cells: HEK reporter cell line
Experimental: as §1

[5] = test system: human adult and elderly PBMCs; test: Cytokine responses of PBMC supernatants by 14-multiplex assay; format: cell-based
[6] = test system: Balb/c murine model of SARS-COV-2 immunization; test: Balb/c murine model of SARS-COV-2 immunization with rSpike with or without adjuvant; format: in vivo, mice; conditions: for rSpike immunogenicity: adult (12 weeks) and aged mice (52 weeks), booster on Day 14
[7] = test system: pattern recognition receptors (PRR) other than TLR4; test: PRR-transfected HEK reporter cell lines, other PRRs; format: cell-based; conditions: screened at 33 μM
Experimental: as §1

[8] = test system: human elderly peripheral blood mononuclear cells (PBMCs); test: Enriched elderly screen: TNF-inducing activity in human elderly PBMCs (384-well); format: cell-based; conditions: screen of 310 molecules, PBMCs of 4 elderly donors, 10% autologous plasma
Text: FIG. 1A: A graphical overview depicting screen approach. From a high throughput screen previously conducted, 310 molecules were identified to be activators of either THP-1 cells (monocyte cell line) or primary human adult peripheral blood mononuclear cells (PBMCs). These 310 molecules were assembled into a stimulation plate and then applied to the PBMCs of 4 elderly donors (cultured with 10% autologous plasma). […] Z scores were averaged across all 4 elderly donors. The Z score and chemical structure for PVP-180 are indicated.
In a previous high throughput screen (HTS), a number of hit molecules were identified as potentially being able to activate human immune cells. From 200,000 molecules screened, 177 had activity with NF-KB/IRF-inducing and leukocyte adherence/inducing activity. A separate small screen (9,000 molecules of the 200,000) was also conducted and 133 separate molecules had TNF-inducing activity in adult human peripheral blood mononuclear cells (PBMCs). These molecules originated from various bioactive and commercial libraries such as ChemDiv, ChemBridge, and Asinex. All libraries were owned and provided by the Institute of Chemistry and Cell Biology (ICCB)-Longwood (Harvard Medical School). […]

T1 sequence (O00206 24-839): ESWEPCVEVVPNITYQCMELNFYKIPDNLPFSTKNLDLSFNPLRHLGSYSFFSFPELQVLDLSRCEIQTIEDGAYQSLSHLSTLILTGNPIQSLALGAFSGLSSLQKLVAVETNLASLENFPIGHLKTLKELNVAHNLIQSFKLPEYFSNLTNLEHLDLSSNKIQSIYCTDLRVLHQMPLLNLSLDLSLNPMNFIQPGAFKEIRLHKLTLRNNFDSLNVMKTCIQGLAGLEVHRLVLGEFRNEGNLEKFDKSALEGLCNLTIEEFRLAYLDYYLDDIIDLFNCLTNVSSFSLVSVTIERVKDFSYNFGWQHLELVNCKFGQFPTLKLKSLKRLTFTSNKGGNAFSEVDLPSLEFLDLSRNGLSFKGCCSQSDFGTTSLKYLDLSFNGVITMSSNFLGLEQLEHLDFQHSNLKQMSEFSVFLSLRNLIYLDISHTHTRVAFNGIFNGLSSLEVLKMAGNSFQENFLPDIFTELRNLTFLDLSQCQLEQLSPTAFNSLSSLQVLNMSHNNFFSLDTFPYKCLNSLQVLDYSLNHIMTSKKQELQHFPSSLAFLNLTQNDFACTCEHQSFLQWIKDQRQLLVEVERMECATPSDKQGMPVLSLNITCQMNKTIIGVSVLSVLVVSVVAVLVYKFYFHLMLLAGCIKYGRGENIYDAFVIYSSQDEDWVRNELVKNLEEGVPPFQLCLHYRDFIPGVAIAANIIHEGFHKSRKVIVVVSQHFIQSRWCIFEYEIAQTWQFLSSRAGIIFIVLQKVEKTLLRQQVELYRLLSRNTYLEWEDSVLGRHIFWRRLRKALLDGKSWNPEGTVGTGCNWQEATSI
T1 sequence (Q9Y6Y9 19-160): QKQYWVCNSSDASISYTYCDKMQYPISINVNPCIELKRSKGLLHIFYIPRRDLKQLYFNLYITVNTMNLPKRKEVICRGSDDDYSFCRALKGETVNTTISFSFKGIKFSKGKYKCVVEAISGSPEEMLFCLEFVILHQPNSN

Structure (SMILES): CC1CCc2cc(F)ccc2N1C(=O)c1ccc(N2CC3CC(C2)c2cccc(=O)n2C3)c(NC(=O)c2cccnc2)c1 (centres unmarked) [PVP-180]
- induction of IL-6 production [1]: concentration-dependent induction
- induction of TNF production [1]: concentration-dependent induction
- dependence of mechanism on MyD88, TBK1, IRF3 [2]: dependent upon MyD88, TBK1, and IRF3
- TNF response as fold-change over the positive control (R848) ([3]; at 3 μM and above): more adult-like TNF response
- production of TNF ([3]; elderly and adult PBMCs, stimulated for 24 hours, N=4): titration-dependent production of TNF
- activity toward TLR4 [4]: strong activity; also recorded: significant activity
- innate immune response (cytokines), elder versus younger adult leucocytes ([5]; 14-multiplex assay): greater innate immune response in elder leucocytes than in younger adult controls
- production of multiple cytokines including TNF, IFNγ and IL-10 ([5]; both populations (adult and elderly PBMCs), PVP-180 at 25 μM, N=4 donors): induced the production of multiple cytokines
- cytokine (TNF, IL-6, IL-10, IL-12, GM-CSF, IFN-γ, IL1-β, IP-10) and/or chemokine (CCL2, CCL5, CXCL8) production ([5]; human PBMC in vitro, compound alone): sufficient to induce cytokine
- rSpike immunogenicity [6]: enhanced rSpike immunogenicity
- rSpike immunogenicity ([6]; listed as compound of Formula (I)): enhanced antigen-specific immune response
- adjuvant activity in adult mice ([6]; adult mice, overall IgG at Day 28): adjuvant activity in immunized adult mice. though with a less pronounced effect than in aged mice
- anti-rSpike IgG2 antibodies ([6]; aged mice): increase
- antibody titers versus rSpike alone ([6]; aged mice, overall IgG at Day 28): substantially higher antibody titers
- anti-rSpike IgG1 subtype antibodies ([6]; both adult and aged mice): primarily enhanced the production
- activity toward the other PRRs tested [7]: not the other PRRs tested
- TNF-inducing activity toward elderly PBMCs [8]: robust activity
